Measurements taken from ChEMBL document CHEMBL1201862, “PubChem BioAssay data set” (2004).
One block for each compound: values may come before it. Activity calls are given as the source filed them.

What was measured:
[1] = molecular target: T1, Eukaryotic translation initiation factor 2-alpha kinase 3 (Homo sapiens, UniProt Q9NZJ5); assay: Counterscreen assay for PERK inhibitors: Dose response cell-based high throughput screening assay to measure inhibition of PERK at 6 hours. [Related pubchem assays: 1522, 1416 ]; assay type: functional
T1 sequence (Q9NZJ5 whole entry): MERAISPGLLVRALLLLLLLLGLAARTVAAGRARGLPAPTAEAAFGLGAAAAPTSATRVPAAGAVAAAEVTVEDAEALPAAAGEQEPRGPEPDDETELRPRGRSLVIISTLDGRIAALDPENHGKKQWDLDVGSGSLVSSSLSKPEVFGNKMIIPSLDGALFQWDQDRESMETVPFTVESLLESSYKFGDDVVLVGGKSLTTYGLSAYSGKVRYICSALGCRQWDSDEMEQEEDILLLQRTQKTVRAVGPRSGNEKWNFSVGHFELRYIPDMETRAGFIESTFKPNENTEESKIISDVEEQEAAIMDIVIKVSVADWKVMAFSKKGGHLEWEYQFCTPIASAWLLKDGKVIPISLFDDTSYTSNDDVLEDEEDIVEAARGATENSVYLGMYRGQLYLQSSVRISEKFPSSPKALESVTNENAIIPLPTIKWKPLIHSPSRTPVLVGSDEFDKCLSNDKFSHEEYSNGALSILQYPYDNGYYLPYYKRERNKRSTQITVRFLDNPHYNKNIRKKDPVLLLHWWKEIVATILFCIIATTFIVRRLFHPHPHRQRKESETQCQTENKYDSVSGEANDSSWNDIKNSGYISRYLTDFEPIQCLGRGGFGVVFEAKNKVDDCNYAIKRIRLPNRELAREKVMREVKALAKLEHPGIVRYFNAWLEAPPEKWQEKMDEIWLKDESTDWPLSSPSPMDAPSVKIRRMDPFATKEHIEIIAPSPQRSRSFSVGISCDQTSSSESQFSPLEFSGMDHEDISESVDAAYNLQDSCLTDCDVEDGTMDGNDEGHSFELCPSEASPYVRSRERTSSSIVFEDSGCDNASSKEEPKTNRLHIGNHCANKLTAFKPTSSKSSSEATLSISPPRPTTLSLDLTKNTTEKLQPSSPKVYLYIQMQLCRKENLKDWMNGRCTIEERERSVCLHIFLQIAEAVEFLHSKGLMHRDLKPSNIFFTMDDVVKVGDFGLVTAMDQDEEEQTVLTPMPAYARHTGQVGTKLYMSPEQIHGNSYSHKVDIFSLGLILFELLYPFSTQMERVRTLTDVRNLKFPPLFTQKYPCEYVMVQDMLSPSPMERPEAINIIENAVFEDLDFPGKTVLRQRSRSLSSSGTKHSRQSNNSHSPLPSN

[2] = molecular target: T1, Eukaryotic translation initiation factor 2-alpha kinase 3; assay: Dose response cell-based high-throughput screening assay to measure PERK inhibition. [Related pubchem assays: 1416 ]; assay type: functional
Albumin = Albumin (Bos taurus, UniProt P02769); assay: Counterscreen for inhibitors of T-cell receptor (TCR)-CD3 interaction: Fluorescence-based biochemical high throughput dose response assay to identify inhibitors of T-cell receptor (TCR)-CD3 interaction using a TAMRA-labeled BSA probe.; assay type: functional
[3] = molecular target: T2, Alkaline phosphatase, tissue-nonspecific isozyme (Homo sapiens, UniProt P05186)
T2 sequence (P05186 whole entry): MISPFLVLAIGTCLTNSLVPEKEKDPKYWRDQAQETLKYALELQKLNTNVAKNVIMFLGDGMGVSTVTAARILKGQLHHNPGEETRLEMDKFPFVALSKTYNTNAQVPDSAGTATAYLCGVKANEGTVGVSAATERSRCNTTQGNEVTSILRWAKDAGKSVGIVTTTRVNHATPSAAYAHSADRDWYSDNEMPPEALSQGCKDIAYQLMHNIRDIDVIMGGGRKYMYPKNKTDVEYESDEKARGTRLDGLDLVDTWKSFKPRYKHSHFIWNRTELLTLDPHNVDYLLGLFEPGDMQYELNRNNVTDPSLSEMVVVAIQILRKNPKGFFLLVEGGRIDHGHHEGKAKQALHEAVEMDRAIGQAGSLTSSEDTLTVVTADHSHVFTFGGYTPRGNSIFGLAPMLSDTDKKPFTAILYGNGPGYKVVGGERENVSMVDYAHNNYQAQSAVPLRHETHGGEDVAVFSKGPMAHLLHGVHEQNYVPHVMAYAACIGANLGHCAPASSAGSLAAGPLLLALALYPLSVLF

Cytochrome P450 2C9 = Cytochrome P450 2C9 (Homo sapiens, UniProt P11712); settings: Potency
Prothrombin = Prothrombin (Homo sapiens, UniProt P00734); assay: Thrombin 1536 HTS Dose Response Confirmation. [Related pubchem assays: 1046 (Thrombin 1536 HTS; hits were confirmed in this assay)]; assay type: functional
Trypsin = Trypsin (Sus scrofa, UniProt P00761); assay: trypsin protease activity blockade – biochemical, quenched peptide fluorescence, cherry-pick, selectivity assay for Rce1 protease inhibitor project, dose response (AID 488789)
Chain of Trypsin (P00761 whole entry): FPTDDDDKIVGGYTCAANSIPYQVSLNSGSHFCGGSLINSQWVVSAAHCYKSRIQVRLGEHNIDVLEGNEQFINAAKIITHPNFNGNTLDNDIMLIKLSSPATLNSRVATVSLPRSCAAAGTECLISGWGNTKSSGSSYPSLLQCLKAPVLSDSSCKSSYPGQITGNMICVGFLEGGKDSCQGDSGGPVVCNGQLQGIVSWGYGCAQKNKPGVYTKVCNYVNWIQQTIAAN

Chain of Cytochrome P450 2C9 (P11712 whole entry): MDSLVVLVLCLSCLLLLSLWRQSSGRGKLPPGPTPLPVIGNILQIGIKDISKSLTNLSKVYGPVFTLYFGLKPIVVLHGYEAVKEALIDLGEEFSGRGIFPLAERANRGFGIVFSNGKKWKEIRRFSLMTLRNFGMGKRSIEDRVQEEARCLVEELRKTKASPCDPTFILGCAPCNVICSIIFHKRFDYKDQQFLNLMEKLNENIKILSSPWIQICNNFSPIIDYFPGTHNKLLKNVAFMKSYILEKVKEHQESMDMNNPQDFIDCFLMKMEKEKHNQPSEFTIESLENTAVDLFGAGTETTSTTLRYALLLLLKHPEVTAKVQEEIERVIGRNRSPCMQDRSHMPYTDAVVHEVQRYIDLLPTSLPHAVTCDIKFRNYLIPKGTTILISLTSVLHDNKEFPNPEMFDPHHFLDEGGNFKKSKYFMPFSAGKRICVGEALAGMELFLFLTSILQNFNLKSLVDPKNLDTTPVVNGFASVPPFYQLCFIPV
Chain of Albumin (P02769 whole entry): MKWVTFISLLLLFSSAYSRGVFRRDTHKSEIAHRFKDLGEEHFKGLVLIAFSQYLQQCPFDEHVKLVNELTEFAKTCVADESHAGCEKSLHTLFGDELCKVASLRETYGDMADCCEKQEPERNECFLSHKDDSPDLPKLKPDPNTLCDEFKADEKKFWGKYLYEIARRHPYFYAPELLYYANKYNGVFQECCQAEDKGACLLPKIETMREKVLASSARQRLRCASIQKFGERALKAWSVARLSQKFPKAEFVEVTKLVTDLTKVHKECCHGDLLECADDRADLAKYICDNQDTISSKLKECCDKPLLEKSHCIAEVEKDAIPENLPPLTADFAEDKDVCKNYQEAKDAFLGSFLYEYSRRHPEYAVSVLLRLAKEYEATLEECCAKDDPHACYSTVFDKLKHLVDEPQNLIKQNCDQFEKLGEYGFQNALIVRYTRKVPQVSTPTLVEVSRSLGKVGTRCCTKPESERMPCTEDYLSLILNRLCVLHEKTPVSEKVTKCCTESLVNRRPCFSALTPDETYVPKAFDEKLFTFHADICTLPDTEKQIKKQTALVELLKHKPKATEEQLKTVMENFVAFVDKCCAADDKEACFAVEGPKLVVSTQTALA

EC50 [1]: > 55.7 µM (not active)
EC50 [2]: > 55.7 µM (not active)
SMILES: CC(NS(=O)(=O)c1ccccc1)c1nnc(S)n1-c1ccccc1 (centres undefined)

IC50 (Albumin): > 94.1 µM (inactive)
EC50 [3]: 64.3 µM (not active)
SMILES: COc1ccc(/C=C2\SC(=O)N(CC(=O)NNC(=O)c3ccccc3O)C2=O)cc1

AC50 (Cytochrome P450 2C9): 31.6 µM (inconclusive)
SMILES: C=C[C@@](C)(O)CC[C@H]1[C@]2(C)CCCC(C)(C)[C@H]2CC[C@]1(C)O

AC50 (Cytochrome P450 2C9): 3.16 µM (inconclusive)
SMILES: CCOC(=O)OCC1OC(c2ccccc2)C=CC1OC(=O)OCC (centres undefined)

EC50 [3]: > 100 µM (not active)
IC50 (Prothrombin): > 50 µM (not active)
SMILES: COc1ccc(CCNC(=O)C2CCC(CNS(=O)(=O)c3ccccc3)CC2)cc1OC (centres undefined)

AC50 (Trypsin): 10.4 µM (active)
SMILES: COc1ccc(-c2ccc(-c3nnc(-c4cc(OC)ccc4OC)o3)cc2)cc1
